Marks after values point to notes of the source that are not given here.
Columns and labels:
Format in all cases: in vivo, Sprague-Dawley (SD) rats
[1] = system: CCl4-induced liver injury in rats; test: Pathological changes of the liver surface observed with naked eyes; details: CCl4-treated rats, 8 weeks
Description: The animal model was performed with five-week-old Sprague-Dawley (SD) rats purchased from BioLasco Taiwan Co., Ltd. Healthy rats weighing 220-270 g were chosen for experiment after observing for 2 weeks in the laboratory animal room. The rats were randomly divided into 6 groups (12 rats/group): normal (gp. A); control groups including model control (gp. B) and positive control (gp. C, animals receiving silymarin); treatment groups including animals receiving 300 mg/kg of cyclohexenone (gp. D), 1000 mg/kg of cyclohexenone (gp. E), and 3000 mg/kg of cyclohexenone (gp. F), as indicated in Table 1. Only normal group was not poisoned with CCl4. The body weights were recorded to calculate the dosage. […] It helps to remove toxins from liver cells by either neutralizing the toxicity of toxic compounds or competing with the binding sites in liver. It is a potent antioxidant, protects the liver from free radicals. It has been widely studied for treating various types of liver injury in animals and clinical trials. […]
The pathological changes of the liver surface were examined with naked eyes when the liver was taken out from rats, and then tissue sections were made. […] The pathological changes of liver injury were evaluated under light microscope (Opticphot-2, Nikon, Tokyo, Japan) after stained with the abovementioned solution. […]

[2] = system: CCl4-induced liver injury in rats; test: Weights of liver, kidney and spleen relative to body weight after CCl4-induced liver injury; details: CCl4-treated rats, 8 weeks
Description: (§1) The animal model was performed with five-week-old Sprague-Dawley (SD) rats purchased from BioLasco Taiwan Co., Ltd. Healthy rats weighing 220-270 g were chosen for experiment after observing for 2 weeks in the laboratory animal room. The rats were randomly divided into 6 groups (12 rats/group): normal (gp. A); control groups including model control (gp. B) and positive control (gp. C, animals receiving silymarin); treatment groups including animals receiving 300 mg/kg of cyclohexenone (gp. D), 1000 mg/kg of cyclohexenone (gp. E), and 3000 mg/kg of cyclohexenone (gp. F), as indicated in Table 1. Only normal group was not poisoned with CCl4. The body weights were recorded to calculate the dosage. […] It helps to remove toxins from liver cells by either neutralizing the toxicity of toxic compounds or competing with the binding sites in liver. It is a potent antioxidant, protects the liver from free radicals. It has been widely studied for treating various types of liver injury in animals and clinical trials. The beneficial effects on liver protection have made silymarin a good medicine for liver diseases and a drug in positive control group for the animal model of liver injury.
(§2) Rats in normal group (group A) were fed with corn oil (Sigma chemical co.) by means of stomach tubes. Carbon tetrachloride (Shimakyu, Osaka, Japan) was administered to groups B to F via stomach tubes twice weekly (every Tuesday and Thursday afternoon) for 8 weeks, at a dose of 2 ml/kg of body weight, diluted with corn oil. Silymarin was prepared with saline in an amount of 200 mg/kg of body weight and was fed to rats of group C via a stomach tube. Cyclohexenone prepared from example 1 was mixed with saline, and fed in the amounts of 300 mg/kg, 1000 mg/kg and 3000 mg/kg of body weight to rats of group D to F via stomach tubes. The total feeding volume was estimated in the ratio of 10 ml/kg of body weight to groups C to F five days a week (every morning) for 8 weeks. The body weights of rats and the amounts of food intake in rats for each group were shown in FIG. 1 and FIG. 2, respectively.
All rats were sacrificed at the end of the 8th week of experiment. The weights of liver, kidney and spleen were recovered and weighted and compared with the body weights to calculate the ratios and observe the effects of cyclohexenone from Antrodia camphorata to CCl4 treatment. All values are expressed as mean ±SD, which were evaluated using One-way Analysis of Variance. Those with significant differences were further tested with the Least Significant Difference Test (LSD) or Student t-test to compare cyclohexenone treatment groups and normal groups, positive control and model groups. P<0.05 was selected as criterion for statistical significance in all cases.

[3] = system: CCl4 induced liver injury in rats; test: Histological evaluation of liver injury (H&E, Jonker et al. 0-4 scale); details: for Liver injury score: 0-4 scale, CCl4-treated rats, 8 weeks; for Liver injury +, counts of pathological rats: level 1 = +, slight; for Liver injury ++, counts of pathological rats: level 2 = ++, mild; for Liver injury +++, counts of pathological rats: level 3 = +++, moderate; for Liver injury ++++, counts of pathological rats: level 4 = ++++, remarkable
Description: as §1, §2
(§3) The pathological changes of the liver surface were examined with naked eyes when the liver was taken out from rats, and then tissue sections were made. Half of each liver lobe was stored at −80° C. for antioxidant enzyme assay to follow up. The rest of liver tissues were fixed in 10% formalin for one week, embedded in paraffin cut into 2 μm sections, and stained with Hematoxyline-eosin (H&E) to visualize the lipid deposition, inflammation, cell necrosis and fibrosis, or stained with Masson's trichromic solution to visualize extracellular matrix and collagen fibers for liver fibrosis development. The pathological changes of liver injury were evaluated under light microscope (Opticphot-2, Nikon, Tokyo, Japan) after stained with the abovementioned solution.
Assessment of pathologic score in the chronic liver damage, the extent of inflammation, vacuolar degeneration, liver cell necrosis and bile duct proliferation were graded semi-quantitatively on a “0” to “4” scale (level 0=−, none, level 1=+, slight, level 2=++, mild, level 3=+++, moderate, and level 4=++++, remarkable, according to Jonker et al. (Jonker, A. M., Dijkhuis, F. W., Boes, A., Hardonk, M. J. and Grond J. 1992. Immunohistochemical study of extracellular matrix in acute galactosamine hepatitis in rats. Hepatology. 15(3):423-31).

[4] = system: CCl4-induced liver fibrosis in rats; test: Histological evaluation of liver fibrosis (Masson's trichrome, 0-4 scale); details: for Liver fibrosis score: 0-4 scale, CCl4-treated rats, 8 weeks; for Liver fibrosis +, counts of pathological rats: level 1, portal fibrosis without septa; for Liver fibrosis ++, counts of pathological rats: level 2, incomplete septa; for Liver fibrosis +++, counts of pathological rats: level 3, intact septal fibrosis and bridging; for Liver fibrosis ++++, counts of pathological rats: level 4, complete thick septa, definite cirrhosis
Description: as §1, §2, §3
Liver fibrosis was evaluated semiquantitatively according to the scoring methods from Gabriele et al. (Gabriele, B. 1997. Silymarin retards collagen accumulation in early and advanced biliary fibrosis secondary to complete bile duct obliteration in rats. Hepatology 26: 643-649) and Wang et al. (Wang, G. S., Eriksson, L. C., Xia, L., Olsson, J. and Stal, P. 1999. Dietary iron overload inhibits carbon tetrachloride-induced promotion in chemical hepatocarcinogenesis: effects on cell proliferation, apoptosis, and antioxidation. J. Hepatol. 30(4):689-98.). Fibrosis was staged on a 0-4 scale: level 0, no fibrosis, normal liver tissue; level 1, proliferation of collagen, portal fibrosis without septa (proliferation of radiating fiber in central vein or periportal region); level 2, incomplete septa between central vein and periportal region (septa without bridging); level 3, intact septal fibrosis and bridging, many nodules in liver, the septa is thin; and level 4, complete thick septa, definite cirrhosis. The results are shown in FIG. 3 to FIG. 5, and Table 3.

[5] = cyclohexenone 300 mg/kg, listed as cyclohexenone from Antrodia camphorata

**Q.** How did the “swelling and pathological conditions of liver surface (naked eyes)” value ([1]; cyclohexenone 3000 mg/kg) turn out when `COC1=C(OC)C(O)C(C/C=C(\C)CC/C=C(\C)CCC=C(C)C)C(C)C1=O` (stereo not drawn) [Cyclohexenone from Antrodia camphorata, 4-hydroxy-2,3-dimethoxy-6-methyl-5(3,7,11-trimethyl-dodeca-2,6,10-trienyl)-cyclohex-2-enone] was run?
**A.** Its value is “slightest condition in swelling and pathological conditions”.

**Q.** And the “extents of liver pathological changes (liver surface, naked eyes)” value ([1]; various amounts of cyclohexenone (300, 1000, 3000 mg/kg), vs model group)?
**A.** Its value is “significantly weaker than that of model group”.

**Q.** What about the “kidney to body weight ratio” value ([2]; cyclohexenone 300 mg/kg) of the same compound?
**A.** The value was 0.68 ± 0.06 %.

**Q.** And the “liver to body weight ratio” value ([2]; cyclohexenone 300 mg/kg)?
**A.** Its value is 3.29 ± 0.35%.

**Q.** What about the “spleen to body weight ratio” value ([2]; cyclohexenone 300 mg/kg) of the same compound?
**A.** Its value is 0.20 ± 0.05 %.

**Q.** What about the “kidney to body weight ratio” value ([2]; cyclohexenone 1000 mg/kg) of the same compound?
**A.** Its value is 0.69 ± 0.13%.

**Q.** And the “liver to body weight ratio” value ([2]; cyclohexenone 1000 mg/kg)?
**A.** The value was 3.20 ± 0.47 %.

**Q.** What about the “spleen to body weight ratio” value ([2]; cyclohexenone 1000 mg/kg) of the same compound?
**A.** The value was 0.22 ± 0.06 %.

**Q.** What about the “kidney to body weight ratio” value ([2]; cyclohexenone 3000 mg/kg) of the same compound?
**A.** Its value is 0.73 ± 0.08 %.

**Q.** And the “liver to body weight ratio” value ([2]; cyclohexenone 3000 mg/kg)?
**A.** The value was 3.65 ± 0.53 %.

**Q.** What about the “spleen to body weight ratio” value ([2]; cyclohexenone 3000 mg/kg) of the same compound?
**A.** Its value is 0.30 ± 0.10 %.

**Q.** What about the Liver injury score ([3]; cyclohexenone 300 mg/kg) of the same compound?
**A.** Its Liver injury score is 1.8*^a.

**Q.** What about the Liver injury score [3, 5] of the same compound?
**A.** The Liver injury score was 1.8.

**Q.** And the Liver injury score ([3]; cyclohexenone 1000 mg/kg)?
**A.** Its Liver injury score is 2.0*^a.

**Q.** What about the Liver injury score ([3]; cyclohexenone 1000 mg/kg, listed as cyclohexenone from Antrodia camphorata) of the same compound?
**A.** The Liver injury score was 2.0.

**Q.** And the Liver injury score ([3]; cyclohexenone 3000 mg/kg)?
**A.** Its Liver injury score is 2.3*^a.

**Q.** What about the “effects in liver injury and liver fibrosis compared with silymarin” value ([3]; CCl4 treated rats fed with different amount of cyclohexenone (300, 1000, 3000 mg/kg)) of the same compound?
**A.** The value was “better effects than silymarin”.

**Q.** And the “Liver injury +, counts of pathological rats” value ([3]; cyclohexenone 300 mg/kg)?
**A.** The value was 5.

**Q.** And the “Liver injury +, counts of pathological rats” value ([3]; cyclohexenone 1000 mg/kg)?
**A.** The value was 3.

**Q.** And the “Liver injury +, counts of pathological rats” value ([3]; cyclohexenone 3000 mg/kg)?
**A.** The value was 2.

**Q.** What about the “Liver injury ++, counts of pathological rats” value ([3]; cyclohexenone 300 mg/kg) of the same compound?
**A.** The value was 6.

**Q.** What about the “Liver injury ++, counts of pathological rats” value ([3]; cyclohexenone 1000 mg/kg) of the same compound?
**A.** The value was 6.

**Q.** What about the “Liver injury ++, counts of pathological rats” value ([3]; cyclohexenone 3000 mg/kg) of the same compound?
**A.** The value was 6.

**Q.** What about the “Liver injury +++, counts of pathological rats” value ([3]; cyclohexenone 1000 mg/kg) of the same compound?
**A.** Its value is 1.

**Q.** And the “Liver injury +++, counts of pathological rats” value ([3]; cyclohexenone 3000 mg/kg)?
**A.** The value was 1.

**Q.** What about the “Liver injury ++++, counts of pathological rats” value ([3]; cyclohexenone 300 mg/kg) of the same compound?
**A.** The value was 1.

**Q.** And the “Liver injury ++++, counts of pathological rats” value ([3]; cyclohexenone 1000 mg/kg)?
**A.** Its value is 1.

**Q.** And the “Liver injury ++++, counts of pathological rats” value ([3]; cyclohexenone 3000 mg/kg)?
**A.** The value was 2.

**Q.** And the Liver fibrosis score ([4]; cyclohexenone 300 mg/kg)?
**A.** Its Liver fibrosis score is 1.8*^a.

**Q.** What about the Liver fibrosis score [4, 5] of the same compound?
**A.** Its Liver fibrosis score is 1.8.

**Q.** And the Liver fibrosis score ([4]; cyclohexenone 1000 mg/kg)?
**A.** The Liver fibrosis score was 2.0*^a.

**Q.** What about the Liver fibrosis score ([4]; cyclohexenone 3000 mg/kg) of the same compound?
**A.** Its Liver fibrosis score is 2.5*.

**Q.** And the “Liver fibrosis −, counts of pathological rats” value ([4]; level 0, no fibrosis, cyclohexenone 1000 mg/kg)?
**A.** Its value is 2.

**Q.** What about the “Liver fibrosis +, counts of pathological rats” value ([4]; cyclohexenone 300 mg/kg) of the same compound?
**A.** The value was 6.

**Q.** What about the “Liver fibrosis +, counts of pathological rats” value ([4]; cyclohexenone 1000 mg/kg) of the same compound?
**A.** The value was 1.

**Q.** What about the “Liver fibrosis +, counts of pathological rats” value ([4]; cyclohexenone 3000 mg/kg) of the same compound?
**A.** Its value is 2.

**Q.** And the “Liver fibrosis ++, counts of pathological rats” value ([4]; cyclohexenone 300 mg/kg)?
**A.** Its value is 4.

**Q.** And the “Liver fibrosis ++, counts of pathological rats” value ([4]; cyclohexenone 1000 mg/kg)?
**A.** The value was 4.

**Q.** And the “Liver fibrosis ++, counts of pathological rats” value ([4]; cyclohexenone 3000 mg/kg)?
**A.** Its value is 4.

**Q.** What about the “Liver fibrosis +++, counts of pathological rats” value ([4]; cyclohexenone 300 mg/kg) of the same compound?
**A.** Its value is 1.

**Q.** And the “Liver fibrosis +++, counts of pathological rats” value ([4]; cyclohexenone 1000 mg/kg)?
**A.** The value was 3.

**Q.** What about the “Liver fibrosis +++, counts of pathological rats” value ([4]; cyclohexenone 3000 mg/kg) of the same compound?
**A.** Its value is 3.

**Q.** What about the “Liver fibrosis ++++, counts of pathological rats” value ([4]; cyclohexenone 300 mg/kg) of the same compound?
**A.** The value was 1.

**Q.** What about the “Liver fibrosis ++++, counts of pathological rats” value ([4]; cyclohexenone 1000 mg/kg) of the same compound?
**A.** The value was 1.

**Q.** And the “Liver fibrosis ++++, counts of pathological rats” value ([4]; cyclohexenone 3000 mg/kg)?
**A.** Its value is 2.
